According to PubChem BioAssay (NCI):
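The compound was tested at five concentrations on cells cultured in 96-well plates, with a 48-hour exposure period. The concentration for 50% growth inhibition is given as GI50. TGI denotes the concentration required for complete inhibition of growth.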

Experiments:
Test in all cases: NCI tumour cell line growth inhibition, 48 h
UACC-257 melanoma = test system: UACC-257 melanoma
TK-10 renal = test system: TK-10 renal
RXF 393 renal = test system: RXF 393 renal
NCI-H460 lung = test system: NCI-H460 lung
SK-OV-3 ovarian = test system: SK-OV-3 ovarian
OVCAR-8 ovarian = test system: OVCAR-8 ovarian
HT29 colon = test system: HT29 colon
MOLT-4 leukemia = test system: MOLT-4 leukemia
T-47D breast = test system: T-47D breast
OVCAR-4 ovarian = test system: OVCAR-4 ovarian

Compound	TGI (UACC-257 melanoma) [µM]	TGI (TK-10 renal) [µM]	TGI (RXF 393 renal) [µM]	TGI (NCI-H460 lung) [µM]	TGI (SK-OV-3 ovarian) [µM]	TGI (OVCAR-8 ovarian) [µM]	TGI (HT29 colon) [µM]	TGI (MOLT-4 leukemia) [µM]	TGI (T-47D breast) [µM]	TGI (OVCAR-4 ovarian) [µM]	GI50 (UACC-257 melanoma) [µM]	GI50 (TK-10 renal) [µM]	GI50 (NCI-H460 lung) [µM]	GI50 (SK-OV-3 ovarian) [µM]	GI50 (OVCAR-8 ovarian) [µM]	GI50 (HT29 colon) [µM]	GI50 (T-47D breast) [µM]	GI50 (OVCAR-4 ovarian) [µM]	GI50 (RXF 393 renal) [µM]	GI50 (MOLT-4 leukemia) [µM]
Cc1ccc(S(=O)(=O)N/N=C(/c2nc3ccc([N+](=O)[O-])cc3[nH]c2=O)C(O)c2ccc(C(O)/C(=N\NS(=O)(=O)c3ccc(C)cc3)c3nc4ccc([N+](=O)[O-])cc4[nH]c3=O)cc2)cc1 (stereo unspecified)	> 100	> 100	> 100	> 100	> 100	> 100	> 100	> 100												
CCOC(=O)COc1ccc2c(C)cc(=O)oc2c1	> 100		> 100	> 100		> 100	> 100	> 100	> 100	> 100										
CC(C)(C)C(C#N)(C#N)c1ccc(C(C#N)(C#N)C(C)(C)C)nn1	> 100	> 100	> 100	> 100	> 100	> 100	> 100	> 100		> 100										
ClC(Cl)[Si]12OCCN(CCO1)CCO2	> 100	> 100	> 100	> 100	> 100	> 100	> 100	> 100												
COC(=O)C=Cc1ccc2nncnc2c1 (mixture of isomers)	36.3	> 100			> 100	> 100	> 100	> 100	> 100	> 100										
Brc1ccc2ns[s+]c2c1	> 100	> 100	> 100	> 100	> 100	> 100	> 100	> 100		> 100										
O=C(Nc1nc2c(ncn2C2OC(CO)C(O)C2O)c(=O)[nH]1)c1ccccc1 (stereo unspecified)	> 100	> 100	> 100	> 100	> 100	> 100	> 100			> 100										
O=C(COc1cccc(/C=C2\CSc3ccccc3C2=O)c1)Nc1nccs1	9.77	4.89		25.5	27.7	10.4	3.43		23.9	19.4	3.02	2.25	10	14.6	3.08	1.85	5.33	3.94		
C=CCc1cc(OC)c2c(c1)C(OC)CC(c1ccc(OC)c(OC)c1)O2 (stereo unspecified)	> 100	> 100		> 100	> 100	> 100	> 100	> 100		> 100										
CC(=O)NNc1nc(C)c(C(=O)NNC(=O)C(=O)Nc2ccc(Cl)cc2Cl)s1	83.4	> 100			> 100	> 100	> 100	57		56.8										
O=P(O)(O)C1(P(=O)(O)O)CC1	> 100	> 100	> 100	> 100	> 100	> 100	> 100	> 100		> 100										
CN(CCCNC(=O)CCOCCOCCOCCNC(=O)Cc1ccc2ccc3cccc4ccc1c2c34)CCCNc1cc(-c2ccc3ccccc3c2)nc2ccccc12	0.908	14.7	0.963	1.02	1.2	0.735	0.419		1.34	1.18	0.478	3.29	0.52	0.634	0.341	0.108	0.654	0.538	0.507	
COc1cc2c(=O)[nH]c3cc([N+](=O)[O-])ccc3c2cc1[N+](=O)[O-]	> 100	> 100	92.2		38.2	88.1	> 100	> 100	> 100	> 100	3.28	3.29		8.7	3.3	2.93	3.52	5.16	6.99	3.9
Cc1c(/C=N/N(C)C)oc2c1cc(O)c1ncccc12	> 100	> 100	58.6	41	71.7	74.2	> 100	16.8		96.6										
O=S(=O)(c1cnccc1N1CCN(CCO)CC1)N1CCCC1	> 100	> 100	> 100	> 100	> 100	> 100	> 100		> 100	> 100										
CN(C)C(=S)SCC(=O)Nc1ccccc1	> 100		> 100	> 100	> 100	> 100	> 100	> 100	> 100	> 100										
CCOC(=O)C1(C)CCCCC(=O)N1 (stereo unspecified)		> 100	> 100	> 100	> 100	> 100	> 100			> 100										
CC1(c2ccc(Cl)cc2)C2C(=O)NC(=O)C1C(=O)NC2=O (stereo unspecified)	> 100	> 100	> 100	> 100	> 100	> 100	> 100	> 100		> 100										
COc1cccc(/C=C2\COc3ccc(-c4ccccc4)cc3C2=O)c1		5.03		3.78	35.8	6.14	4.72	> 100	4.98	7.63		2.35	1.74	5.25	2.21	1.7	2.03	2.79		3.09
CC(=O)NC(CC(C)C)C(=O)NC(Cc1ccccc1)C(=S)N1CCCC1 (stereo unspecified)	> 100	> 100	> 100	> 100	> 100	> 100	> 100	> 100		> 100										
COC(=O)CSSCc1ccc([N+](=O)[O-])cc1	98.4	55.7	36.2	> 100	46.8	82.1	60.8	> 100	51.7											
